From ChEMBL document CHEMBL3124779, “Discovery of ABT-267, a pan-genotypic inhibitor of HCV NS5A” (J Med Chem, 2014)

What was measured:
Hepatitis C virus [1] = assay: Resistant ratio of EC50 for wild type HCV1b to EC50 for HCV1b harboring NS5A Y93H mutant infected in human HuH7 cells; format: functional, Hepacivirus hominis, genotype 1b, Huh-7
Hepatitis C virus [2] = assay: Resistant ratio of EC50 for wild type HCV1b to EC50 for HCV1b harboring NS5A L31V mutant infected in human HuH7 cells; format: functional, Hepacivirus hominis, genotype 1b, Huh-7
Hepatitis C virus [3] = assay: Resistant ratio of EC50 for wild type HCV1a to EC50 for HCV1a harboring NS5A Y93H mutant infected in human HuH7 cells; format: functional, Hepacivirus hominis, subtype 1a, Huh-7
Hepatitis C virus [4] = assay: Resistant ratio of EC50 for wild type HCV1a to EC50 for HCV1a harboring NS5A H58D mutant infected in human HuH7 cells; format: functional, Hepacivirus hominis, subtype 1a, Huh-7
Hepatitis C virus [5] = assay: Antiviral activity against HCV1b harboring NS5A L31V and Y93H mutant infected in human HuH7 cells assessed as inhibition of viral replication after 4 days by luciferase reporter gene assay; format: functional, Hepacivirus hominis, genotype 1b, Huh-7
Hepatitis C virus [6] = assay: Antiviral activity against HCV1b harboring NS5A L31M and Y93H mutant infected in human HuH7 cells assessed as inhibition of viral replication after 4 days by luciferase reporter gene assay; format: functional, Hepacivirus hominis, genotype 1b, Huh-7
Hepatitis C virus [7] = assay: Antiviral activity against HCV1b harboring NS5A L31F and Y93H mutant infected in human HuH7 cells assessed as inhibition of viral replication after 4 days by luciferase reporter gene assay; format: functional, Hepacivirus hominis, genotype 1b, Huh-7
Hepatitis C virus [8] = assay: Antiviral activity against HCV1b harboring NS5A L28M and Y93H mutant infected in human HuH7 cells assessed as inhibition of viral replication after 4 days by luciferase reporter gene assay; format: functional, Hepacivirus hominis, genotype 1b, Huh-7
Hepatitis C virus [9] = assay: Antiviral activity against HCV1b harboring NS5A L31V mutant infected in human HuH7 cells assessed as inhibition of viral replication after 4 days by luciferase reporter gene assay; format: functional, Hepacivirus hominis, genotype 1b, Huh-7
Hepatitis C virus [10] = assay: Antiviral activity against HCV1b harboring NS5A L31F mutant infected in human HuH7 cells assessed as inhibition of viral replication after 4 days by luciferase reporter gene assay; format: functional, Hepacivirus hominis, genotype 1b, Huh-7
Hepatitis C virus [11] = assay: Antiviral activity against HCV1b harboring NS5A L28T mutant infected in human HuH7 cells assessed as inhibition of viral replication after 4 days by luciferase reporter gene assay; format: functional, Hepacivirus hominis, genotype 1b, Huh-7
Hepatitis C virus [12] = assay: Antiviral activity against HCV1a harboring NS5A Y93N mutant infected in human HuH7 cells assessed as inhibition of viral replication after 4 days by luciferase reporter gene assay; format: functional, Hepacivirus hominis, subtype 1a, Huh-7
Hepatitis C virus [13] = assay: Antiviral activity against HCV1a harboring NS5A Y93H mutant infected in human HuH7 cells assessed as inhibition of viral replication after 4 days by luciferase reporter gene assay; format: functional, Hepacivirus hominis, subtype 1a, Huh-7
Hepatitis C virus [14] = assay: Antiviral activity against HCV1a harboring NS5A Y93C mutant infected in human HuH7 cells assessed as inhibition of viral replication after 4 days by luciferase reporter gene assay; format: functional, Hepacivirus hominis, subtype 1a, Huh-7
Hepatitis C virus [15] = assay: Antiviral activity against HCV1a harboring NS5A Q30R mutant infected in human HuH7 cells assessed as inhibition of viral replication after 4 days by luciferase reporter gene assay; format: functional, Hepacivirus hominis, subtype 1a, Huh-7
Hepatitis C virus [16] = assay: Antiviral activity against HCV1a harboring NS5A M28T mutant infected in human HuH7 cells assessed as inhibition of viral replication after 4 days by luciferase reporter gene assay; format: functional, Hepacivirus hominis, subtype 1a, Huh-7
Hepatitis C virus [17] = assay: Antiviral activity against HCV6a infected in human HuH7 cells assessed as inhibition of viral replication after 4 days by luciferase reporter gene assay; format: functional, organism-based, Hepacivirus hominis; conditions: genotype 6a, Huh-7, 96 h
Hepatitis C virus [18] = assay: Antiviral activity against HCV5a infected in human HuH7 cells assessed as inhibition of viral replication after 4 days by luciferase reporter gene assay; format: functional, organism-based, Hepacivirus hominis; conditions: genotype 5a, Huh-7, 96 h
Hepatitis C virus [19] = assay: Antiviral activity against HCV4a infected in human HuH7 cells assessed as inhibition of viral replication after 4 days by luciferase reporter gene assay; format: functional, organism-based, Hepacivirus hominis; conditions: genotype 4a, Huh-7, 96 h
Hepatitis C virus [20] = assay: Antiviral activity against HCV2b infected in human HuH7 cells assessed as inhibition of viral replication after 4 days by luciferase reporter gene assay; format: functional, organism-based, Hepacivirus hominis; conditions: genotype 2b, Huh-7, 96 h
Hepatitis C virus [21] = assay: Antiviral activity against HCV2a infected in human HuH7 cells assessed as inhibition of viral replication after 4 days by luciferase reporter gene assay; format: functional, organism-based, Hepacivirus hominis; conditions: genotype 2a, Huh-7, 96 h
[22] = AUC in monkey at 2.5 mg/kg, po; format: ADME, organism-based, Macaca mulatta; parameters: dose 2.5 mg/kg, route oral; conditions: rhesus monkey, plasma
[23] = Oral bioavailability in monkey at 2.5 mg/kg; format: ADME, organism-based, Macaca mulatta; conditions: rhesus monkey, in vivo
[24] = Tmax in monkey at 2.5 mg/kg, po; format: ADME, organism-based, Macaca mulatta; parameters: dose 2.5 mg/kg, route oral; conditions: rhesus monkey, in vivo
[25] = Clearance in monkey at 1 mg/kg, iv; format: ADME, organism-based, Macaca mulatta; parameters: dose 1 mg/kg, route intravenous; conditions: rhesus monkey, in vivo
[26] = Half life in monkey at 1 mg/kg, iv; format: ADME, organism-based, Macaca mulatta; parameters: dose 1 mg/kg, route intravenous; conditions: rhesus monkey, in vivo
[27] = Cmax in dog at 2.5 mg/kg, po; format: ADME, organism-based, Canis lupus familiaris; parameters: dose 2.5 mg/kg, route oral; conditions: in vivo
[28] = Half life in dog at 2.5 mg/kg, po; format: ADME, organism-based, Canis lupus familiaris; parameters: dose 2.5 mg/kg, route oral; conditions: in vivo
[29] = Clearance in dog at 1 mg/kg, iv; format: ADME, organism-based, Canis lupus familiaris; parameters: dose 1 mg/kg, route intravenous; conditions: in vivo
[30] = Half life in dog at 1 mg/kg, iv; format: ADME, organism-based, Canis lupus familiaris; parameters: dose 1 mg/kg, route intravenous; conditions: in vivo
[31] = Volume of distribution at steady state in dog at 1 mg/kg, iv; format: ADME, organism-based, Canis lupus familiaris; parameters: dose 1 mg/kg, route intravenous; conditions: in vivo, read-out: Vdss
[32] = Oral bioavailability in rat at 3 mg/kg; format: ADME, organism-based; conditions: in vivo
[33] = Cmax in rat at 3 mg/kg, po; format: ADME, organism-based; parameters: dose 3 mg/kg, route oral; conditions: in vivo
[34] = AUC in rat at 3 mg/kg, po; format: ADME, organism-based; parameters: dose 3 mg/kg, route oral; conditions: plasma
[35] = Tmax in rat at 3 mg/kg, po; format: ADME, organism-based; parameters: dose 3 mg/kg, route oral; conditions: in vivo
[36] = Volume of distribution at steady state in rat at 3 mg/kg, iv; format: ADME, organism-based; parameters: dose 3 mg/kg, route intravenous; conditions: in vivo, read-out: Vdss
[37] = Metabolic stability in human liver microsomes assessed as compound remaining after 30 mins; format: ADME; conditions: read-out: Stability
[38] = Half life in rat at 3 mg/kg, iv; format: ADME, organism-based; parameters: dose 3 mg/kg, route intravenous; conditions: in vivo
[39] = Metabolic stability in rat liver microsomes assessed as compound remaining after 30 mins; format: ADME; conditions: read-out: Stability
[40] = Lipophilicity, log D of the compound at pH 7.4 by HPLC analysis; format: physicochemical; conditions: buffer
Hepatitis C virus [41] = assay: Ratio of EC50 for HCV1b Con1 infected in human HuH7 cells in presence of 40% human plasma to EC50 for HCV1b Con1 infected in human HuH7 cells in absence of 40% human plasma; format: functional, Hepacivirus hominis, isolate Con1, Huh-7
Hepatitis C virus [42] = assay: Resistant ratio of EC50 for wild type HCV1b to EC50 for HCV1b harboring NS5A L31F mutant infected in human HuH7 cells; format: functional, Hepacivirus hominis, genotype 1b, Huh-7
Hepatitis C virus [43] = assay: Resistant ratio of EC50 for wild type HCV1a to EC50 for HCV1a harboring NS5A M28T mutant infected in human HuH7 cells; format: functional, Hepacivirus hominis, subtype 1a, Huh-7
Homo sapiens = organism: Homo sapiens; assay: Toxicity in HCV1 infected patient assessed as adverse event at 5 to 200 mg qd for 3 days; format: organism-based; conditions: in vivo, 72 h
[44] = Cmax in HCV1 infected patient at 5 to 200 mg qd for 3 days; format: ADME, organism-based; conditions: human, in vivo
Hepatitis C virus [45] = assay: Resistant ratio of EC50 for wild type HCV1b to EC50 for HCV1b harboring NS5A L31M and Y93H mutant infected in human HuH7 cells; format: functional, Hepacivirus hominis, genotype 1b, Huh-7
Hepatitis C virus [46] = assay: Resistant ratio of EC50 for wild type HCV1b to EC50 for HCV1b harboring NS5A R30Q and Y93H mutant infected in human HuH7 cells; format: functional, Hepacivirus hominis, genotype 1b, Huh-7
Hepatitis C virus [47] = assay: Resistant ratio of EC50 for wild type HCV1b to EC50 for HCV1b harboring NS5A L28M and Y93H mutant infected in human HuH7 cells; format: functional, Hepacivirus hominis, genotype 1b, Huh-7

## COC(=O)N[C@H](C(=O)N1CCC[C@H]1C(=O)Nc1ccc([C@@H]2CC[C@@H](c3ccc(NC(=O)[C@@H]4CCCN4C(=O)[C@@H](NC(=O)OC)C(C)C)cc3)N2c2ccc(C(C)(C)C)cc2)cc1)C(C)C [OMBITASVIR]
Hepatitis C virus [1]
  Ratio EC50: 77
Hepatitis C virus [2]
  Ratio EC50: 8
Hepatitis C virus [3]
  Ratio EC50: 41382
Hepatitis C virus [4]
  Ratio EC50: 243
Hepatitis C virus [5]
  Efficacy: 24%
Hepatitis C virus [6]
  Efficacy: 11%
Hepatitis C virus [7]
  Efficacy: 35%
Hepatitis C virus [8]
  Efficacy: 104%
Hepatitis C virus [9]
  Efficacy: 86%
Hepatitis C virus [10]
  Efficacy: 127%
Hepatitis C virus [11]
  Efficacy: 17%
Hepatitis C virus [12]
  Efficacy: 25%
Hepatitis C virus [13]
  Efficacy: 18%
Hepatitis C virus [14]
  Efficacy: 24%
Hepatitis C virus [15]
  Efficacy: 60%
Hepatitis C virus [16]
  Efficacy: 100%
Hepatitis C virus [17]
  EC50: 415 pM
Hepatitis C virus [18]
  EC50: 4.3 pM
Hepatitis C virus [19]
  EC50: 1.71 pM
Hepatitis C virus [20]
  EC50: 4.3 pM
Hepatitis C virus [21]
  EC50: 12.4 pM
[22]
  AUC: 2400 ng·h/mL
[23]
  bioavailability: 35%
[24]
  Tmax: 3.3 h
[25]
  clearance: 6.33 mL/min/kg
[26]
  half-life: 4.4 h
[27]
  Cmax: 640 ng/mL
[28]
  half-life: 7.3 h
[29]
  clearance: 3 mL/min/kg
[30]
  half-life: 7.9 h
[31]
  Vd: 1.8 L/kg
[32]
  bioavailability: 6.2%
[33]
  Cmax: 10 ng/mL
[34]
  AUC: 290 ng·h/mL
[35]
  Tmax: 3.7 h
[36]
  Vd: 5.9 L/kg
[37]
  remaining at 0.5 h: 60%
[38]
  half-life: 9.9 h
[39]
  remaining at 0.5 h: 73%
[40]
  logD: 5.4
Hepatitis C virus [41]
  Ratio EC50: 11
Hepatitis C virus [42]
  Ratio EC50: 10
Hepatitis C virus [43]
  Ratio EC50: 8965
Homo sapiens
  Activity: Non-toxic
[44]
  Cmax: 5.7 ng/mL
Hepatitis C virus [45]
  Ratio EC50: 142
Hepatitis C virus [46]
  Ratio EC50: 284
Hepatitis C virus [47]
  Ratio EC50: 415
